Measurements from patent US4749559A, “Method for detecting melanin-containing matter” (United States of America, priority 1986, dated 1988).
One block for each compound: values may come before it.

What was measured:
[1] = tested on: B16 melanoma; test: In vitro binding of [125I]BZZ to homogenate of B16 melanoma; design: species or system mouse
Experimental: (§1) A tissue homogenate rather than washed particulate material was used for the assay. The assay system (final volume 200 μ) contained Tris-HCl (pH 7.4), 80 mM; ethyleneglyco-bis-(β-aminoethyl ether) N,N',tetraacetic (EGTA), 0.8 mM and MgSO4, 10 mM; radiolabeled ligand (40,000 cpm, 60 pM) and the unlabeled ligand as required for competitive assay; and incubations were performed at 25° C. for about 60 min. When binding to striatum and to tumor were compared, binding to homogenates of both tissues was determined simultaneously. In order to determine the reproducibility of the results, ligand binding was determined in 3 replicate samples for each experimental condition. The mean of these three values was taken as a single errorless value and the mean of three (or more) of such values from independent experiments is reported. Data represent mean ± SE.

[2] = molecular target: T1, D-1 dopamine receptor (Mus musculus, UniProt Q61616); test: In vitro binding of [125I]BZZ to homogenate of caudate putamen (competition with unlabeled SCH23390 enantiomers); details: FIG. 4A
T1 construct: homogenate of the caudate putamen of the Swiss Webster mouse brain; from tissue; host or cells: caudate-putamen homogenate, Swiss Webster mouse brain
T1 sequence (Q61616 whole entry): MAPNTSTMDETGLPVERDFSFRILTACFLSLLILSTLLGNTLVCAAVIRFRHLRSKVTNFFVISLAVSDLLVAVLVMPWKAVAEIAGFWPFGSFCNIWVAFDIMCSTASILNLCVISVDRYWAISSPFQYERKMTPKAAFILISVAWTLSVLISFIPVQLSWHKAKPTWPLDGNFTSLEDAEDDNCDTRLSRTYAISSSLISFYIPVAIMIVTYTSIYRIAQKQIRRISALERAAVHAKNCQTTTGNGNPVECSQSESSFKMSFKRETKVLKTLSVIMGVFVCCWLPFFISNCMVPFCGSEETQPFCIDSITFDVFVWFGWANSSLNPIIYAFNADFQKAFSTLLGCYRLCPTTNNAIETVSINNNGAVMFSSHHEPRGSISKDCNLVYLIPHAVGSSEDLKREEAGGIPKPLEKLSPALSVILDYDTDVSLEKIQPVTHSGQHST
Experimental: as §1

[3] = tested on: human melanoma; test: In vitro autoradiography of frozen sections of human melanoma (lymph node); type: binding; details: lymph node with pigmented metastatic melanoma; 200 pM ligand; FIG. 6 right
Experimental: (§2) After animals were killed, the brain, eyes or tumor were immediately removed and frozen on dry ice. Frozen, 16 μthick sections were cut in a cryostat at -16° C., thaw-mounted onto gelatin-coated slides and stored overnight under vacuum at 4° C. The tissue sections were preincubated for 15 min in 50 mM Tris-HCl buffer, pH 7.4, for 15 min and then incubated for 20 min in a solution containing 50 mM Tris-HCl, pH 7.4, 120 mM NaCl, 5 mM KCl, 2 mM CaCl2, 1 mM MgCl2 and 200 pM iodinated ligand (either R or S enantiomer). After incubation, the slides were washed 4 times in ice-cold 50 mM Tris-HCl buffer and dried under a stream of air. Autoradiographic images were produced by placing the slides in X-ray casettes and using them to expose [^3 H]ultra film for 15 hours following standard procedure.

[4] = tested on: caudate nucleus of the rat brain; test: Binding of [125I]BZZ enantiomers to homogenate of caudate nucleus; details: FIG. 5
Experimental: as §1

[5] = tested on: B16 melanoma; test: In vitro autoradiography of frozen sections of B16 melanoma; type: binding, mouse; details: 200 pM ligand; FIG. 6 left
Experimental: as §2

[6] = In vitro autoradiography of frozen section of retina; type: binding, mouse; details: FIG. 3C
Experimental: as §2
Emulsion autoradiography was performed as follows: a flexible coverslip coated with NTB-3 (Kodak) was exposed to the tissue section; when the exposure was complete in about a day (about 24 hrs) the emulsion was developed at 4° for 2 min in D-19 developer. The section was stained with hematoxylin and eosin and the coverslip was reexposed to the stained section.

[7] = tested on: B16 melanoma; test: Noninvasive imaging of [125I] with pinhole collimator and gamma camera; type: in vivo, mouse; details: tumor-bearing and nontumor-bearing mice; 50 μCi intravenous; FIG. 2
Experimental: Mice received a bolus injection of [^125 I]BZZ (50 μCi) dissolved in Hank's balanced salt solution via the tail vein. At several times, the distribution of [^125 I]was determined by imaging with a pinhole collimeter attached to a gamma camera (Raytheon Nuclear Diagnostics).

[8] = tested on: B16 melanoma; test: In vivo accumulation of intravenously administered radiolabel in B16 melanoma (gamma counting, autoradiography); design: species or system mouse
Experimental: The B16 melanoma was removed from the host mouse, washed in a balanced salt solution and then cut into small fragments (approximately 2 mm cubes). A tumor fragment was then implanted subcutaneously with a trochar into either the back or hind limb of the recipient mouse (either a C57/B16 or Swiss-Webster). Tumors could be easily seen within 2 to 3 weeks after implantation of the tumor fragment.
(§3) Radiolabeled ligand was dissolved in Hank's balanced salt solution and administered via the tail vein as a bolus of 100 μl. At appropriate times, the animals were sacrificed and various organs removed. The amount of ^125 I radioactivity within a given organ was determined with a gamma counter.
as §2

[9] = In vivo accumulation of radiolabel in eyes of pigmented and albino mice; design: species or system mouse
Experimental: as §3, §2

[10] = mouse given B16 melanoma cells intravenously 3 weeks earlier, 50 μCi, autoradiogram FIG. 1D, E

SMILES: CN1CCc2cc(Cl)c(O)cc2C(c2ccccc2)C1 (centres unmarked) [2,3,4,5-tetrahydro-8-chloro-3 methyl-5-phenyl-1H-3 benzazepin-7-ol]
displacement of [125I]BZZ from melanoma tissue [1]: effectively displaced

SMILES: CN1CCc2cc(Cl)c(O)cc2[C@@H](c2ccccc2)C1 [R-enantiomer, reference compound]
concentration required to displace [125I]BZZ from melanoma binding site relative to D-1 dopamine receptor ([1]; B16 melanoma versus caudate homogenate, FIGS. 4A and B): 400 fold | difference between R- and S-enantiomers ([1]; binding site in B16 melanoma, displacement of [125I]BZZ, FIG. 4B): 5.1 fold | affinity for R-enantiomer relative to S-enantiomer ([2]; D-1 receptor in caudate nucleus, displacement of [125I]BZZ): 100 fold

binding to metastatic human melanoma (frozen section autoradiogram) [3]: effectively bind | binding to homogenate of caudate nucleus [4]: failed to bind | binding to frozen sections of murine B16 melanoma [5]: bound to frozen sections
SMILES: CN1CCc2cc([125I])c(O)cc2[C@H](c2ccccc2)C1 [[^125 I]-S-BZZ]
binding to pigmented B16 melanoma homogenate ([1]; compared with R-enantiomer, FIG. 5): to the same degree as did its R-enantiomer

amount of bound radioactivity corresponding to 100 percent ([1]; homogenate of B16 melanoma propagated in Swiss Webster mice, FIG. 4B): 18,033±3,647 cpm/mg wet weight | binding to metastatic human melanoma (frozen section autoradiogram) [3]: effectively bind | accumulation within the abdomen [7]: substantial accumulation | concentration of radiolabel within B-16 melanoma relative to nonpigmented eye ([8]; albino mouse, 10 μCi intravenous, within 45 min, p<0.001): 19 times | accumulation of radiolabel in foci of pigmented cells of lung (metastatic melanoma) [8, 10]: heavy accumulation of radiolabel | binding of ligand to normal lung tissue [8, 10]: does not bind the ligand | binding to frozen sections of murine B16 melanoma [5]: bound to frozen sections | difference between amount of radiolabel accumulated in pigmented and albino eyes ([9]; C57B1/6 versus Swiss Webster mouse, 10 μCi intravenous, P<0.001): 79 fold | amount of bound radioactivity corresponding to 100 percent ([2]; homogenate of caudate putamen of Swiss Webster mouse brain): 23,379±555 cpm/mg wet wt
SMILES: CN1CCc2cc([125I])c(O)cc2[C@@H](c2ccccc2)C1 [[^125 I]BZZ]
localization of radiolabel in frozen section of retina exposed to ligand in vitro [6]: highly concentrated within the melanin containing pigment epithelium | accumulation of radiolabel in tumor versus surrounding tissues (autoradiograph) ([8]; frozen section of B16 melanoma after intravenous administration, FIG. 1B, C): much higher degree than within the surrounding tissues | localization of radiolabel within the pigmented eye (autoradiography) ([9]; 50 μCi, 45 min, FIG. 3B): accumulated predominantly in a narrow band at the back of the pigmented eye
